Assay results as given in patent US11319286B2, “Heterocyclic compound and application thereof” (Takeda Pharmaceutical Company Limited, priority 2017, dated 2022).

Target: T1, human orexin type 2 receptor (hOX2R) (Homo sapiens, UniProt O43614)
T1 construct: expressed in transfected cells
T1 sequence (O43614 1-444): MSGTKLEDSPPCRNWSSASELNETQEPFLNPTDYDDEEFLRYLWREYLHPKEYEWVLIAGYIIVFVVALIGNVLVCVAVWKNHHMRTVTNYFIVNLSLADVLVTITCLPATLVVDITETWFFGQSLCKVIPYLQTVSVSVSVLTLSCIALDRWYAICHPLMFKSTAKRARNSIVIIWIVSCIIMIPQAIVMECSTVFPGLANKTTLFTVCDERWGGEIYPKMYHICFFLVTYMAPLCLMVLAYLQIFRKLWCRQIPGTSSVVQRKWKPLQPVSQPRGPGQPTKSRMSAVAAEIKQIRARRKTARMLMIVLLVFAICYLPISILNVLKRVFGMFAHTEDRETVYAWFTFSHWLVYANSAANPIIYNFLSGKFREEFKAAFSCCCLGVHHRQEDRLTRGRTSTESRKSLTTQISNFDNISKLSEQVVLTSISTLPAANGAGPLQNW
Assay: Measurement of orexin type 2 receptor agonist activity (calcium fluorescence, Fluo-4 AM, FDSS)
Format: cell-based
Conditions: CHO cells forcibly expressing human OX2 receptor; 100% = orexin A (human) 10 nM, 0% = DMSO
Text: To obtain a cell clone stably expressing human orexin type 2 receptor, human orexin type 2 receptor cDNA was inserted into pcDNA3.1(+) plasmid vector (Invitrogen), and a plasmid DNA for expression of human orexin type 2 receptor (pcDNA3.1(+)/hOX2R) was cloned. The plasmid DNA was introduced into CHO-dhfr cell by an electroporation method, and human orexin type 2 receptor expressing clone cells were obtained by limiting dilution method by using G418 drug resistance as a selection marker.
CHO cells forcibly expressing human OX2 receptor were seeded in each well of 384 well black transparent bottom plate (BD Falcon) at 7,500 cells/well, and cultured for one day in a 5% CO2 incubator at 37° C. After removal of the medium in the cell plate, assay buffer A containing a calcium indicator (HBSS (Thermo Fisher Scientific), 20 mM HEPES (Thermo Fisher Scientific), 0.1% BSA (Wako Pure Chemical Industries, Ltd. or Sigma-Aldrich), 2.5 μg/mL Fluo-4 AM (DOJINDO Chemical), 0.08% Pluronic F127 (DOJINDO Chemical), 1.25 mM probenecid (DOJINDO Chemical)) was added at 30 μL/well. The plate was stood for 30 min in a 5% CO2 incubator at 37° C., and further stood at room temperature for 30 min. A test compound prepared by diluting with assay buffer B (HBSS, 20 mM HEPES, 0.1% BSA) was added at 10 μL/well, and the fluorescence value was measured by FDSSμCELL (Hamamatsu Photonics K.K.) every one sec for 1 min, and thereafter every two sec for 1 min 40 sec. The activity (%) of the test compound was calculated assuming that variation in the fluorescence value when DMSO was added instead of the test compound was 0%, and variation in the fluorescence value when orexin A (human) (PEPTIDE INSTITUTE, INC.) was added at the final concentration of 10 nM was 100%. Unless otherwise specified, the maximum agonist activity of each compound was 90% or more, when the maximum agonist activity of orexin A was considered as 100%.

Structure (SMILES) | EC50 [µM]
COC(=O)N1CC[C@H](NS(C)(=O)=O)[C@@H]1CO[C@H]1CC[C@@H](c2ccccc2)CC1 (relative stereo) [Example 1, methyl cis-3-((methylsulfonyl)amino)-2-(((cis-4-phenylcyclohexyl)oxy)methyl)pyrrolidine-1-carboxylate] | 0.13
CS(=O)(=O)N[C@H]1CCN[C@H]1CO[C@H]1CC[C@@H](c2ccccc2)CC1 (relative stereo) [Example 2, N-(cis-2-(((cis-4-phenylcyclohexyl)oxy)methyl)pyrrolidin-3-yl)methanesulfonamide] | 3.6
CCOC(=O)N1CC[C@H](NS(C)(=O)=O)[C@@H]1CO[C@H]1CC[C@@H](c2ccccc2)CC1 (relative stereo) [Example 3, ethyl cis-3-((methylsulfonyl)amino)-2-(((cis-4-phenylcyclohexyl)oxy)methyl) pyrrolidine-1-carboxylate] | 0.24
CS(=O)(=O)N[C@H]1CCN(C(=O)C2CC2)[C@H]1CO[C@H]1CC[C@@H](c2ccccc2)CC1 (relative stereo) [Example 4, N-(cis-1-(cyclopropylcarbonyl)-2-(((cis-4-phenylcyclohexyl)oxy)methyl)pyrrolidin-3-yl)methanesulfonamide] | 0.047
CS(=O)(=O)N[C@H]1CCN(C(=O)CC(F)(F)F)[C@H]1CO[C@H]1CC[C@@H](c2ccccc2)CC1 (relative stereo) [Example 5, N-(cis-2-(((cis-4-phenylcyclohexyl)oxy)methyl)-1-(3,3,3-trifluoropropanoyl)pyrrolidin-3-yl)methanesulfonamide] | 0.76
CS(=O)(=O)N[C@H]1CCN(C(=O)N2CCC2)[C@H]1CO[C@H]1CC[C@@H](c2ccccc2)CC1 (relative stereo) [Example 6, N-(cis-1-(azetidin-1-ylcarbonyl)-2-(((cis-4-phenylcyclohexyl)oxy)methyl)pyrrolidin-3-yl)methanesulfonamide] | 0.017
CS(=O)(=O)N[C@H]1CCN(C(=O)C2CCC2)[C@H]1CO[C@H]1CC[C@@H](c2ccccc2)CC1 (relative stereo) [Example 7, N-(cis-1-(cyclobutylcarbonyl)-2-(((cis-4-phenylcyclohexyl)oxy)methyl)pyrrolidin-3-yl)methanesulfonamide] | 0.04
CN(C)C(=O)N1CC[C@H](NS(C)(=O)=O)[C@@H]1CO[C@H]1CC[C@@H](c2ccccc2)CC1 (relative stereo) [Example 8, cis-N,N-dimethyl-3-((methylsulfonyl)amino)-2-(((cis-4-phenylcyclohexyl)oxy)methyl)pyrrolidine-1-carboxamide] | 0.013
CN(C)C(=O)N1CC[C@H](NS(C)(=O)=O)[C@@H]1CO[C@H]1CC[C@@H](c2ccccc2C(F)(F)F)CC1 (relative stereo) [Example 9, cis-3-((methanesulfonyl)amino)-N,N-dimethyl-2-(((cis-4-(2-(trifluoromethyl)phenyl)cyclohexyl)oxy)methyl)pyrrolidine-1-carboxamide] | 0.27
CC(C)(O)C(=O)N1CC[C@H](NS(C)(=O)=O)[C@@H]1CO[C@H]1CC[C@@H](c2ccccc2)CC1 (relative stereo) [Example 10, N-(cis-1-(2-hydroxy-2-methylpropanoyl)-2-(((cis-4-phenylcyclohexyl)oxy)methyl)pyrrolidin-3-yl)methanesulfonamide] | 0.41
CN(C)C(=O)N1CC[C@H](NS(C)(=O)=O)[C@@H]1COC1CCN(c2ncc(F)cn2)CC1 (relative stereo) [Example 11, cis-2-(((1-(5-fluoropyrimidin-2-yl)piperidin-4-yl)oxy)methyl)-3-((methanesulfonyl)amino)-N,N-dimethylpyrrolidine-1-carboxamide] | 0.082
